# Publication PMC6891286, “Towards the Development of an In vivo Chemical Probe for Cyclin G Associated Kinase (GAK)” (Molecules, 2019)
# Read-outs that look alike come from different tables or passages of the source.
# Key:
# GAK [1] = target: T1, GAK (Homo sapiens, UniProt O14976); assay: TR-FRET ligand-binding displacement assay; settings: TR-FRET assay; read-out: Biochemical GAK Ki
# T1 sequence (O14976 1-1311): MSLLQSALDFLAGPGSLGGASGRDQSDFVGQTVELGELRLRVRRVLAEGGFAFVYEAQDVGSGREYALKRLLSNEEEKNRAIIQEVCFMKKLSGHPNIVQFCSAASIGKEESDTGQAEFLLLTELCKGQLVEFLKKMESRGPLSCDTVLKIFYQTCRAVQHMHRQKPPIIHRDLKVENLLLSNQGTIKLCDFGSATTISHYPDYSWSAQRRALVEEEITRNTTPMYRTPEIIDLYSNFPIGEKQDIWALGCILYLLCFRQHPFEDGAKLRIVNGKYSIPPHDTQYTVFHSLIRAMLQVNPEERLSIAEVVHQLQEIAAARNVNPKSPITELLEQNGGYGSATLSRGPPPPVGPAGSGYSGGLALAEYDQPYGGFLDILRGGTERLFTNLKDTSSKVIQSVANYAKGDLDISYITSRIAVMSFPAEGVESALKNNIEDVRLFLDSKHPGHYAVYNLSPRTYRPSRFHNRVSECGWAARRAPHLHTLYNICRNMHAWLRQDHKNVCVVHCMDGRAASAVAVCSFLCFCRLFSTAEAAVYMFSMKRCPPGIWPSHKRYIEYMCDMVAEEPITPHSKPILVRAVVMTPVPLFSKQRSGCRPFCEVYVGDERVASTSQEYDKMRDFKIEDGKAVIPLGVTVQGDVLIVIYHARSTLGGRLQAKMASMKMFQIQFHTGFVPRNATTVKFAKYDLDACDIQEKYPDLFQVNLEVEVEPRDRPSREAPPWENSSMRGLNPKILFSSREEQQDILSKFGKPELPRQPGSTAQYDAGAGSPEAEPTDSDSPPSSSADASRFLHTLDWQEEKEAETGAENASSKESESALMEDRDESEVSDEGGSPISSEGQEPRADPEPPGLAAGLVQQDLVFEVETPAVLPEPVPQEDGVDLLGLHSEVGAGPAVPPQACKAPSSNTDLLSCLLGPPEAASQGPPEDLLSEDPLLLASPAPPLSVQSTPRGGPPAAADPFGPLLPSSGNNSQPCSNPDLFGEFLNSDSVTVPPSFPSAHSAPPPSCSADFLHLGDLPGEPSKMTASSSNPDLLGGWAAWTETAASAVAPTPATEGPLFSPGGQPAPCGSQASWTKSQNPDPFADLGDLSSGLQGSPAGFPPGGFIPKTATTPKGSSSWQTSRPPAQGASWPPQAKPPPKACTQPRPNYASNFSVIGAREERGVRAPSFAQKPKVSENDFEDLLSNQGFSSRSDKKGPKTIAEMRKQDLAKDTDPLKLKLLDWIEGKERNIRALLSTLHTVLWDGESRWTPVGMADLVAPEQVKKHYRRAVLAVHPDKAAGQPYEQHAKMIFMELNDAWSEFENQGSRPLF
# GAK [2] = target: T1, GAK; assay: live cell NanoBRET target engagement assay; type: cell-based; settings: nanoBRET; mean average, n = 2
# [3] = mouse liver microsome metabolic stability; settings: for T1/2 Ratio: normalization with respect to internal control (propranolol); for half-life / CLint scaled: mouse
# Experimental: SGC-GAK-1 (1) was incubated with MLMs in the presence or absence of added NADPH, and the compound was quantified at various time points over an hour.
# The metabolic stability of the 4-anilinoquinolines (8–13) were evaluated in MLMs (Table 1). Half-lives for metabolic clearance were normalized to propranolol in each experimental run to control for variations in the MLM preparations.
# [4] = metabolite identification in mouse liver microsomes
# Experimental: After centrifugation, the supernatant was subjected to analysis by LCMS, and structures of metabolites were assigned on the basis of their molecular weight and fragmentation pattern.
# Compounds were incubated at a concentration of 10 µM with mouse liver microsomes in the presence of an excess of NADPH.
# 1.1. General Numbering of Metabolites
# The metabolites are numbered according to their retention times in the gradient LC-MS analysis in positive […]
# ion mode. […] The M number increases […]
# consecutively for metabolites with increasing retention time.
# To avoid confusion, labelled retention times of a metabolite peak in different injections are the same, which may lead to mismatch between labelled retention time and actual retention time.
# General Strategy for Metabolite Identification
# The vehicle control and study samples were injected into LC-MS with gradient elution using a Q1 scan method. Searching for potential metabolites was then performed using LightSight software (Applied Biosystems/MDS Sciex) by comparing a total ion current chromatogram of Q1 scan from a study sample with a chromatogram from the corresponding vehicle control sample. The study sample was then injected again to obtain the product ion spectra of potential metabolites using product ion scan methods. The fragmentation patterns of the potential metabolites were then compared to the fragmentation of the parent compound to elucidate the structures of the metabolites.
# The assignment of fragments is shown
# 2.2. Identification of Metabolites in Mouse Liver Microsomal Incubation
# AAK1 = AAK1 (Homo sapiens, UniProt Q2M2I8); assay: NAK family TR-FRET binding displacement assay; settings: NAK family FRET screening
# BMP2K = BMP2K (Homo sapiens, UniProt Q9NSY1); assay: NAK family TR-FRET binding displacement assay
# STK16 = STK16 (Homo sapiens, UniProt O75716); assay: NAK family TR-FRET binding displacement assay; settings: NAK family FRET screening; read-out: Binding displacement assay STK16 Ki
# Kinetic Solubility = type: physicochemical; settings: pH 7.4, aqueous buffer, kinetic from dmso stock, PBS pH7.4 (100 µM)
# EGFR = settings: read-out: EGFR KD; cited from earlier work
# [5] = pharmacokinetic profiling in mice, oral dosing; type: in vivo; settings: C57BL/6 mice, 10 mg/kg po; for Cmax / AUC(0-inf) / Tmax: 10 mg/kg
# Experimental: Pharmacokinetic profiling was performed by SAI Life Sciences (Hyderabad, India). […] Prior approval of the Institutional Animal Ethics Committee (IAEC) was obtained before initiation of the study. Healthy male C57BL/6 mice (8–12 weeks old) weighing between 20 and 35 g were procured from (Envigo Research Private Ltd., City, Hyderabad, India). Three mice were housed in each cage. […] Temperature and humidity were recorded by an automatically controlled data logger system. All animals were provided a laboratory rodent diet (Envigo Research Private Ltd., Hyderabad, India). Reverse osmosis water treated with ultraviolet light was provided ad libitum. Eighteen male mice were weighed and divided in to two groups (Group 1 and Group 2), with nine mice in each group. […] The dosing volume administered was 10 mL/kg for the oral route. […] Plasma samples were separated by centrifugation at 4000 rpm for 10 min and stored below −70 °C until bioanalysis. […] The plasma concentration-time data were then used for the pharmacokinetic analysis. A non-compartmental analysis module in Phoenix WinNonlin (Version 6.3, Certara USA Inc., Raleigh, NC, USA) was used to assess the pharmacokinetic parameters. Maximum concentration (Cmax) and time to reach the maximum concentration (Tmax) were the observed values. The areas under the concentration time curve (AUClast and AUCinf) were calculated by linear trapezoidal rule.
# GAK [6] = target: T1, GAK; design: method as in PMID 30768268, PMID 30973735; settings: cited from earlier work
# [7] = test system: prostate cancer cells that contain constitutively-active splice variants of the androgen receptor; design: method as in PMID 30973735; settings: cited from earlier work
# CYP2A6 = test system: CYP2A6; design: method as in PMID 18936109; settings: cited from earlier work
# CYP3A4 = test system: CYP3A4; design: method as in PMID 18936109; settings: cited from earlier work
# CYP1A2 = test system: CYP1A2; design: method as in PMID 18936109; settings: cited from earlier work
# CYP2B6 = test system: CYP2B6; design: method as in PMID 18936109; settings: cited from earlier work
# CYP2C8 = test system: CYP2C8; design: method as in PMID 18936109; settings: cited from earlier work
# CYP2C9 = test system: CYP2C9; design: method as in PMID 18936109; settings: cited from earlier work
# CYP2C19 = test system: CYP2C19; design: method as in PMID 18936109; settings: cited from earlier work
# CYP2D6 = test system: CYP2D6; design: method as in PMID 18936109; settings: cited from earlier work
# [8] = mouse liver microsomes, T1/2 (min), mouse liver microsomes with NADPH, mean average, n = 2
# [9] = read-out: Kinetic Solubility µM
# [10] = read-out: Kinetic Solubility µg/mL
# [11] = mouse liver microsomes, Clint (mL/min/kg) (+) ABT, mouse liver microsomes, (+) ABT
# [12] = mouse liver microsomes, Clint (mL/min/kg) (−) ABT, (−) ABT
# [13] = mouse liver microsomes, T1/2 (min) (+) ABT, mouse liver microsomes, (+) ABT, mean average, n = 2
# [14] = mouse liver microsomes, T1/2 (min) (−) ABT, (−) ABT, mean average, n = 2
# [15] = male, C57BL/6, mouse, plasma, po, 2 h pretreat 50 mpk ABT
# [16] = male, C57BL/6, mouse, plasma, po, without ABT
# AAK1, sequence (Q2M2I8 whole entry): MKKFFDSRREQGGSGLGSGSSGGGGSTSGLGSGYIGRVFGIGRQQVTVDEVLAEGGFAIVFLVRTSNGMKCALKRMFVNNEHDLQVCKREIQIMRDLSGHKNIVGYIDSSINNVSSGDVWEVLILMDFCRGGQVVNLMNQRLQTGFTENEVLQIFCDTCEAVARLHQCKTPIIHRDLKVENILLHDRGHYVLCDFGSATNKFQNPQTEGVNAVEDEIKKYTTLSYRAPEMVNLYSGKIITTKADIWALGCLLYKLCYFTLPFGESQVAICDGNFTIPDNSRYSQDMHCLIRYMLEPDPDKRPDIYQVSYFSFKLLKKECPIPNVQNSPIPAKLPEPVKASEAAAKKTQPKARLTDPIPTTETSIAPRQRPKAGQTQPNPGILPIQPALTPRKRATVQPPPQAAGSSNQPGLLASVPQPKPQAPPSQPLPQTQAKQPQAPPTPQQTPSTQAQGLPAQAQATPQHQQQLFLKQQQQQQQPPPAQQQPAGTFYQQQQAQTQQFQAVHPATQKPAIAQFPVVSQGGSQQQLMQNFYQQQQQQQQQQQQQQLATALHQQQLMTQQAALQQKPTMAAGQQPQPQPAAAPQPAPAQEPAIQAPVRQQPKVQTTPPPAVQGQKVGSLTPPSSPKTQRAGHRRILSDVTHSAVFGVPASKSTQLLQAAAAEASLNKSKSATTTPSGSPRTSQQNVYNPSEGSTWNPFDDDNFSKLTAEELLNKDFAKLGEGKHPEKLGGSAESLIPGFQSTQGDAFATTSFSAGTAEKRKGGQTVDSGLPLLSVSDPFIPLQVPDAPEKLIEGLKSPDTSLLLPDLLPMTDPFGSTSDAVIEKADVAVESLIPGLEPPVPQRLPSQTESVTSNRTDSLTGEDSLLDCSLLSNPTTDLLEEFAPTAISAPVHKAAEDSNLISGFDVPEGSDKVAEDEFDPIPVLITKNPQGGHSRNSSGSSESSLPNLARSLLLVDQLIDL
# STK16, sequence (O75716 whole entry): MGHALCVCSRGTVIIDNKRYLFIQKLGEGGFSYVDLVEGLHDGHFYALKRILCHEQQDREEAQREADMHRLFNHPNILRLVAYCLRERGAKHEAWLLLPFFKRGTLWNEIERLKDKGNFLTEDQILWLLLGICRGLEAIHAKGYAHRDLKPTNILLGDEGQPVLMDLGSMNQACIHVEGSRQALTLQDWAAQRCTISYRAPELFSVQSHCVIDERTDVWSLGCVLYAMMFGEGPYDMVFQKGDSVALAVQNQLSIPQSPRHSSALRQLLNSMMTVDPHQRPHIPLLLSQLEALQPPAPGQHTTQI
# BMP2K, sequence (Q9NSY1 whole entry): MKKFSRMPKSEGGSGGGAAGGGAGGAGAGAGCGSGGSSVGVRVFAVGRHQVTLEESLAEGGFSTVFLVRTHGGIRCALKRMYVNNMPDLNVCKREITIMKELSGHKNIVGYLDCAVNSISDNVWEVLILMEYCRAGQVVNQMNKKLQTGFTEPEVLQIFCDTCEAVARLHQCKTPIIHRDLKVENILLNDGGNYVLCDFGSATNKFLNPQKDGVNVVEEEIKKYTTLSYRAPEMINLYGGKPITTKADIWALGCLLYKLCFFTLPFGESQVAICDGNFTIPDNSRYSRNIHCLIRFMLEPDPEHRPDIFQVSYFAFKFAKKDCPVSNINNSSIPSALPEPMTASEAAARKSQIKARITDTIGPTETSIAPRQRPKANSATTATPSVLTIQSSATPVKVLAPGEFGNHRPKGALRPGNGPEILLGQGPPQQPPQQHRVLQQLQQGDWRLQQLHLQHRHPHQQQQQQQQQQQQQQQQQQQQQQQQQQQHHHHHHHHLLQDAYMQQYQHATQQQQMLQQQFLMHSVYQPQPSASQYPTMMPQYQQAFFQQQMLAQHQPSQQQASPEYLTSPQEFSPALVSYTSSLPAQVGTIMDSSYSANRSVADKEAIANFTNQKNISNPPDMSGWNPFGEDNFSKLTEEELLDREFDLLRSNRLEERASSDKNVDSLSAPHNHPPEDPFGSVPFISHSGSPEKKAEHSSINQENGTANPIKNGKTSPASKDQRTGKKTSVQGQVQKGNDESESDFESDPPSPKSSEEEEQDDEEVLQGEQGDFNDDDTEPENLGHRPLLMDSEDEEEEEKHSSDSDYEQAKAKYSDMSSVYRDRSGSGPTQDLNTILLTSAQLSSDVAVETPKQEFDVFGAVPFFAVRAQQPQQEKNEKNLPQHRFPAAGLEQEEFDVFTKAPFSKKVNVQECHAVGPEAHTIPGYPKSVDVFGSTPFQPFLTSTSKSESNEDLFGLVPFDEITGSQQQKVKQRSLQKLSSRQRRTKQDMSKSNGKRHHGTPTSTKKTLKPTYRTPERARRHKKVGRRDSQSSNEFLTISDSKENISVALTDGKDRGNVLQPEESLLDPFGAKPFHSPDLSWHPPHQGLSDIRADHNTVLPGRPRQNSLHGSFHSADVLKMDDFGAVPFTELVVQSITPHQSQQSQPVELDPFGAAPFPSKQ
SMILES,Ki (GAK [1]) [µM],IC50 (GAK [2]) [µM],T1/2 Ratio ([3]; mouse liver microsomes),"half-life [3, 8] [min]",Primary Metabolism Site [4],Primary Metabolite Mass [4],Ki (AAK1) [µM],Ki (BMP2K) [µM],Ki (STK16) [µM],solubility kinetic (Kinetic Solubility; [9]) [µM],solubility kinetic (Kinetic Solubility; [10]) [µg/mL],further results
"Fc1ccc(Nc2ccnc3ccc(Br)cc23)c(F)c1 [Compound 11, 6-Bromo-N-(2,4-difluorophenyl)quinolin-4-amine]",0.035,2.7,0.47,3.2,Aniline,Parent − F + OH,5.7,18,11,39.5,13.2,
"C#Cc1cccc(Nc2ncnc3cc(OCCOC)c(OCCOC)cc23)c1 [Erlotinib, erlotinib]",,,,,,,,,,,,Kd (EGFR): 0.0007 µM
COc1cc(Nc2ccnc3ccc(Br)cc23)cc(OC)c1OC [Compound 1],,,,5.7,,,53,,51,57.8,22.5,"degradation in MLM ([3]; mouse liver microsomes in the absence of NADPH, over an hour): No degradation; CLint scaled [3, 11]: 40 mL/min/kg; CLint scaled [3, 12]: 990 mL/min/kg; half-life [3, 13]: 130 min; half-life [3, 14]: 5.7 min; Cmax ([5]; without ABT): 97 ng/mL; AUC(0-inf) [5, 15]: 1900 ng·h/mL; Tmax [5, 15]: 30 min; Cmax ([5]; male, C57BL/6, mouse, plasma, po, 2 h pretreat 50 mpk ABT, read-out: Cmax): 650 ng/mL; AUC(0-inf) [5, 16]: 98 ng·h/mL; Tmax [5, 16]: 30 min; Cmax ([5]; male, C57BL/6, mouse, plasma, po, without ABT, read-out: Cmax): < 100 ng/mL; half-life ([5]; male, mouse, plasma, without ABT, read-out: T1/2 in mice): < 60 min; GAK DSF ΔTm (GAK [6]): 7.7 °C; viability of prostate cancer cells [7]: potently inhibits"
"Nn1nnc2ccccc21 [ABT, 1-aminobenzotriazole]",,,,,,,,,,,,inhibition of CYP2A6 activity (CYP2A6): 100%; inhibition of CYP3A4 activity (CYP3A4): 100%; residual activity CYP1A2 (CYP1A2): up to 20%; residual activity CYP2B6 (CYP2B6): up to 20%; residual activity CYP2C8 (CYP2C8): up to 20%; CYP2C9 activity remaining (CYP2C9): 60%; residual activity CYP2C19 (CYP2C19): up to 20%; residual activity CYP2D6 (CYP2D6): up to 20%
COc1cc(Nc2ccnc3ccc(C(F)(F)F)cc23)cc(OC)c1OC [Compound 13],,,,,Aniline,Parent + O,54,,17,,,"T1/2 ([3]; mouse liver microsomes with NADPH, mean average, n = 2): 6.4 min; Ki (BMP2K; NAK family FRET screening, read-out: Binding displacement assay BMP2K Ki): > 100 µM"
"Brc1ccc2nccc(Nc3cccc4c3OCO4)c2c1 [Compound 9, N-(Benzo[d][1,3]dioxol-4-yl)-6-bromoquinolin-4-amine]",0.0019,0.022,1.9,8.9,Aniline,Parent + O,> 100,> 100,> 100,7.3,2.5,"T1/2 Ratio (+) ABT ([3]; mouse liver microsomes, (+) ABT, normalized to propranolol): 0.13; T1/2 Ratio (−) ABT ([3]; mouse liver microsomes, (−) ABT, normalized to propranolol): 0.05; CLint scaled [3, 11]: 3140 mL/min/kg; CLint scaled [3, 12]: 7610 mL/min/kg; half-life [3, 13]: 1.8 min; half-life [3, 14]: 0.74 min"
"Fc1ccc(F)c(Nc2ccnc3ccc(Br)cc23)c1 [Compound 10, 6-Bromo-N-(2,5-difluorophenyl)quinolin-4-amine]",0.015,0.87,0.17,1.7,Aniline,Parent + O,3.8,9.8,6.2,2.2,0.7,
